We go through 7 compounds from ChEMBL document CHEMBL1201862, “PubChem BioAssay data set” (2004).

Test systems include SK-MEL-5; RXF 393; Malme-3M; CCRF-CEM; SF-539; HL-60; SR; OVCAR-8; DMS-273; NCI/ADR-RES; CAKI-1; 786-0; MDA-MB-435; MDA-N; PC-3; MDA-MB-231; Hs-578T; T47D; BT-549; DU-145.
Test in all cases: NCI anticancer screen, dose series, 48 h

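Where inhibition never reached the appropriate level, the endpoint shown equals the highest concentration tested. Otherwise, values were interpolated linearly from a five-concentration, 48-hour dose response in 96-well plates. GI50 = concentration required for 50% inhibition of growth.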 Calls of active or inactive are those of the source. No stated cut-off is given here; in the data, active = GI50 up to about 1.1 µM and inactive = higher.

For `Nc1nc(Cl)cc(NCCCCO)n1`, the GI50 in the experiment on SK-MEL-5, in the experiment on RXF 393, in the experiment with Malme-3M, in the experiment on CCRF-CEM, with SF-539 and in the experiment on HL-60 was > 100 µM (inactive) in each case. The GI50 in the experiment with SR, in the experiment on OVCAR-8 and in the experiment with DMS-273 was > 100 µM (inactive) in each case.
On to `O=C(NC(Cc1ccc(I)cc1)C(=O)O)c1cccc(Br)c1` (stereo not drawn), for which the GI50 was > 100 µM (inactive) in the experiment on SK-MEL-5; 70.1 µM (inactive) with Malme-3M; 69.2 µM (inactive) in the experiment with CCRF-CEM; 84.1 µM (inactive) with SF-539; > 100 µM (inactive) in the experiment with HL-60; > 100 µM (inactive) in the experiment with OVCAR-8. Besides, the results for the GI50 in the experiment with NCI/ADR-RES, in the experiment on DMS-273 and in the experiment on CAKI-1 were 99.5 µM (inactive), > 100 µM (inactive) and > 100 µM (inactive), respectively.
On to `CSc1nc(NC2OCC(O)C(O)C2O)c(N)c(=O)n1C` (stereo not drawn), for which the GI50 in the experiment on SK-MEL-5 is > 100 µM (inactive); with RXF 393, > 100 µM (inactive); in the experiment on Malme-3M it was > 100 µM (inactive); in the experiment with CCRF-CEM it was > 100 µM (inactive); in the experiment on SF-539 it was 75.2 µM (inactive); with HL-60, > 100 µM (inactive). For the same compound, the GI50 in the experiment on OVCAR-8, with NCI/ADR-RES and with DMS-273 was > 100 µM (inactive) each time.
As for `CCC1NC(/N=N/c2ccc([N+](=O)[O-])cc2)(P(=O)(OC(C)C)OC(C)C)OC1=O` (stereo not drawn), the GI50 in the experiment on SK-MEL-5, with Malme-3M, with CCRF-CEM, in the experiment with SF-539, with HL-60 and in the experiment with SR was > 100 µM (inactive) in each case. Also, the GI50 in the experiment on OVCAR-8, in the experiment with DMS-273 and in the experiment with CAKI-1 was > 100 µM (inactive) each time.
Regarding `Cc1ccc(NC(=O)C2C(=O)N(c3ccc(C)c(C)c3)C(=O)/C2=N\NC(N)=S)cc1C` (stereo not drawn), the GI50 in the experiment on Malme-3M was > 100 µM (inactive); with CCRF-CEM, 47.4 µM (inactive); in the experiment with SF-539, > 100 µM (inactive); with HL-60, > 100 µM (inactive); with SR, > 100 µM (inactive); with 786-0, > 100 µM (inactive). Besides, the GI50 with DMS-273 and with CAKI-1 was > 100 µM (inactive) throughout.
As for `Cc1c(N)nc([C@H](CC(N)=O)NC[C@H](N)C(N)=O)nc1C(=O)N[C@H](C(=O)N[C@H](C)[C@@H](O)CC(=O)N[C@H](C(=O)NC(O[C@@H]1O[C@@H](C)[C@@H](N)[C@@H](O)[C@H]1O)C(O)c1nc(-c2nc(C(=O)NCCCCN)cs2)cs1)[C@@H](C)O)[C@@H](O[C@@H]1O[C@@H](CO)[C@@H](O)[C@H](O)[C@@H]1O[C@H]1O[C@H](CO)[C@@H](O)[C@H](OC(N)=O)[C@@H]1O)c1c[nH]cn1` (stereo partly drawn), the GI50 in the experiment on MDA-MB-435 was > 50 µM (inactive); in the experiment on MDA-N, > 50 µM (inactive); in the experiment on SK-MEL-5, 12.6 µM (inactive); with PC-3, > 50 µM (inactive); in the experiment on RXF 393, 7.67 µM (inactive); with MDA-MB-231, > 50 µM (inactive). The GI50 with CCRF-CEM was > 50 µM (inactive); in the experiment with SF-539 it was 0.311 µM (active); with Hs-578T, 18.7 µM (inactive); in the experiment on T47D, > 50 µM (inactive); with HL-60, > 44.2 µM (inactive); in the experiment on BT-549, > 50 µM (inactive). The GI50 in the experiment with DU-145 is > 27.7 µM (inactive); with SR, 0.0316 µM (active); in the experiment on OVCAR-8, 12.6 µM (inactive); in the experiment on NCI/ADR-RES it was 7.89 µM (inactive); in the experiment with CAKI-1, 5.85 µM (inactive).
For `O=C1C[C@H](c2ccccc2)C2(C(=O)c3ccccc3C2=O)[C@H](c2ccccc2)C1`, the GI50 was > 100 µM (inactive) in the experiment on MDA-MB-435; 85.7 µM (inactive) with MDA-N; 63.1 µM (inactive) in the experiment with SK-MEL-5; > 100 µM (inactive) in the experiment with PC-3; 12.1 µM (inactive) with RXF 393; 9.42 µM (inactive) in the experiment with MDA-MB-231. Also, the GI50 is > 100 µM (inactive) in the experiment on Malme-3M; > 100 µM (inactive) in the experiment with CCRF-CEM; 29.8 µM (inactive) in the experiment on Hs-578T; > 100 µM (inactive) with T47D; > 100 µM (inactive) in the experiment with HL-60; 86.9 µM (inactive) in the experiment with BT-549. Moreover, the GI50 was 75 µM (inactive) in the experiment with DU-145; > 100 µM (inactive) in the experiment on SR; > 100 µM (inactive) with OVCAR-8; > 100 µM (inactive) with NCI/ADR-RES; > 100 µM (inactive) in the experiment on CAKI-1.
